Data reported in patent EP0973746B1, “SUBSTITUTED 3-CYANO QUINOLINES” (Wyeth Holdings Corporation, priority 1997, dated 1998).
Values after ≈ are worked out from the molar mass of the structure shown.

Test system: B7474
Assay: Inhibition of cancer cell growth as measured by cell number, B7474
Assay type: cell-based
Conditions: Homo sapiens, 48 h, read-out: IC50 B7474

CCOc1cc2ncc(C#N)c(Nc3cccc(Br)c3)c2cc1OCC [Example 47, 4-[(3-Bromophenyl)amino]6,7-diethoxy-3-quinolinecarbonitrile]
IC50: 0.233 µg/mL (≈ 0.566 µM)
